Biological target: T1, Aurora‐A R151A (Homo sapiens, UniProt O14965, C290A/C393A/R151A)
T1 construct: pET30TEV Aurora‐A 122–403 C290A, C393A were produced in a similar manner; made in house
T1 sequence (O14965 122-403 R151A/C290A/C393A): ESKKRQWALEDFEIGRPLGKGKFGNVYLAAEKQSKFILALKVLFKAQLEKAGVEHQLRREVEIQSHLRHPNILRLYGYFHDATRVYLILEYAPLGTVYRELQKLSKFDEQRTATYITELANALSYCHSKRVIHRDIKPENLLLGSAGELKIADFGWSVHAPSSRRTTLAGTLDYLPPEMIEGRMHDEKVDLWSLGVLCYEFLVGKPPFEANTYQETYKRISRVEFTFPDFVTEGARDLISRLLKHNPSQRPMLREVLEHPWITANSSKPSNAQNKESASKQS
Experiment: FP binding assay, Aurora‐A R151A
Conditions: fluorescence polarization, Aurora‐A R151A relative to WT Aurora‐A
Procedure: The contributions of the site 1 residues to the interaction were quantified using fluorescence polarization spectroscopy (FP) with a set of fluorescein (FAM)‐labelled peptides.
Binding assays were performed in triplicate. FP signal was fit to a one‐site total binding model in Prism 6 (GraphPad). Results are reported as K d ± SE.

reduced affinity: 40 fold
SMILES: CC(C)C[C@H](NC(=O)[C@@H](NC(=O)[C@H](CCC(=O)O)NC(=O)[C@H](C)NC(=O)[C@@H]1CCCN1C(=O)[C@H](CC(=O)O)NC(=O)[C@H](CCCNC(=N)N)NC(=O)[C@H](Cc1ccccc1)NC(=O)[C@H](CO)NC(=O)[C@H](CCC(=O)O)NC(=O)[C@H](CCC(=O)O)NC(=O)c1ccc2c(c1)C(=O)OC21c2ccc(O)cc2Oc2cc(O)ccc21)C(C)C)C(=O)NCC(=O)N[C@H](C(=O)NCC(=O)N[C@@H](C)C(=O)O)[C@@H](C)O [FAM‐TACC3 522–536]

— PMC5897774, “Mitotic spindle association of TACC3 requires Aurora‐A‐dependent stabilization of a cryptic α‐helix” (The EMBO Journal, 2018)
